From patent publication US20200405696A1, “INHIBITORS OF INDOLEAMINE 2,3-DIOXYGENASE AND/OR TRYPTOPHAN 2,3-DIOXYGENASE” (IDORSIA PHARMACEUTICALS LTD, priority 2018, published 2020)

Key:
[1] = target: T1, Recombinant full-length human IDO1 (Homo sapiens, UniProt P14902); assay: IDO1 enzymatic assay (NFK quantified by LCMS); format: biochemical; settings: 2 nM enzyme, 5 μM L-tryptophan, pH6.5, 30 minutes pre-incubation at RT; mean values when measured multiple times; read-out: hIDO activity (IC50 in nM)
T1 construct: Recombinant full-length human IDO1 with a N-terminal hexahistidine tag; hexahistidine (His6) (N); made in house; host or cells: E. coli
Summary of the method: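 His-tagged human IDO1 (2 nM) in pH 6.5 phosphate buffer with ascorbate, methylene blue and catalase was preincubated with compound (10 μM–0.5 nM, 0.6% DMSO) for 30 min at RT. The reaction then ran with 5 μM L-Trp for 30 min. NFK was measured by LCMS against a d5-Trp standard, and IC50 was obtained by four-parameter fit.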

[2] = target: T2, Recombinant human TDO comprising amino acids 19-407 (Homo sapiens, UniProt P48775); assay: TDO2 enzymatic assay (NFK quantified by LCMS); format: biochemical; settings: 15 nM enzyme, 200 μM L-tryptophan, pH7, 30 minutes pre-incubation at RT; mean values when measured multiple times; read-out: hTDO activity (IC50 in nM)
T2 construct: Recombinant human TDO comprising amino acids 19-407 with a N-terminal hexahistidine tag; hexahistidine (His6) (N); made in house; host or cells: E. coli
Summary of the method: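 NFK formed over 30 min at RT from 200 μM L-tryptophan was measured by LCMS, normalized to d5-tryptophan, after compound (0.5 nM–10 μM, duplicates, 0.6% DMSO) was preincubated 30 min with 15 nM recombinant His-tagged TDO 19-407 in phosphate buffer pH 7. IC50 from four-parameter logistic fit; repeats averaged.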

T1 sequence (P14902 whole entry): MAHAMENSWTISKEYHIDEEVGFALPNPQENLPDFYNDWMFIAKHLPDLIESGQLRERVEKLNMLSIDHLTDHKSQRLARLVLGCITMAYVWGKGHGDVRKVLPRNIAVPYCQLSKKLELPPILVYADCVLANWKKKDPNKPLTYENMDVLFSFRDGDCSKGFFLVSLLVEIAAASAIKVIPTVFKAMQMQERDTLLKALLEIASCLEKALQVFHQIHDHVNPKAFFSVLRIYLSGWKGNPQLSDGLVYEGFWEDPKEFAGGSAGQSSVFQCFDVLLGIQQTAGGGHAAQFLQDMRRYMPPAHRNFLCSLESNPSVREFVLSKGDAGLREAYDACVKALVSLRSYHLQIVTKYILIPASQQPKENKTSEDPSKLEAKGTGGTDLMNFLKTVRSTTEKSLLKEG
T2 sequence (P48775 19-406 limits assumed): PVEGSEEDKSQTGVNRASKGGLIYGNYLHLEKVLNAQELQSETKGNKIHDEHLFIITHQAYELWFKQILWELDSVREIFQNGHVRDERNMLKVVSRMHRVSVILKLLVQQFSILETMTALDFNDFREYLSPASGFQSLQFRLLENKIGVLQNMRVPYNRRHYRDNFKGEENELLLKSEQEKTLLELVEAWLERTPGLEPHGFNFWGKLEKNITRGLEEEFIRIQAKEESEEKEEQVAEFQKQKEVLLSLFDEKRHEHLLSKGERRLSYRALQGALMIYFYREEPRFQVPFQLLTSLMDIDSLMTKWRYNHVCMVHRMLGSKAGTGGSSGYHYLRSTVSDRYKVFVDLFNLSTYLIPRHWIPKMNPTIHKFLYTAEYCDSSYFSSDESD

| IC50 [1] [nM] | IC50 [2] [nM] | Compound |
| --- | --- | --- |
| 27.2 | > 10200 | Cc1cc(O)cc(-n2cc(C(O)c3c(C4CC4)sc4cncn34)nn2)c1 (racemic) [Example 220, rac-3-{4-[(2-Cyclopropyl-imidazo[5,1-b]thiazol-3-yl)-hydroxy-methyl]-[1,2,3]triazol-1-yl}-5-methyl-phenol] |
| 6.31 | 4410 | Cc1c([C@H](O)c2c(C3CC3)sc3cncn23)nnn1-c1ccccc1 [Example 101a, (R)-(2-Cyclopropyl-imidazo[5,1-b]thiazol-3-yl)-(5-methyl-1-phenyl-1H-[1,2,3]triazol-4-yl)-methanol] |
| 5.98 | > 10200 | COc1ccc(-n2cc([C@H](O)c3c(C4CC4)sc4cncn34)nn2)cc1 [Example 9a, (R)-(2-Cyclopropyl-imidazo[5,1-b]thiazol-3-yl)-[1-(4-methoxy-phenyl)-1H-[1,2,3]triazol-4-yl]-methanol] |
| 12.1 | 9820 | CC1(c2sc3cncn3c2C(O)c2cn(-c3ccc(O)c(Cl)c3)nn2)CC1 (racemic) [Example 324, rac-2-Chloro-4-(4-{hydroxy-[2-(1-methyl-cyclopropyl)-imidazo[5,1-b]thiazol-3-yl]-methyl}-[1,2,3]triazol-1-yl)-phenol] |
| 186 | 864 | Cc1sc2cncn2c1C(O)c1cnn(-c2ccccc2)c1C (racemic) [Example 98, rac-(2-Methyl-imidazo[5,1-b]thiazol-3-yl)-(5-methyl-1-phenyl-1H-pyrazol-4-yl)-methanol] |
| 21.9 | > 10200 | OC(c1cn(-c2ccc(Cl)cc2)nn1)c1c(C2CC2)sc2cncn12 (racemic) [Example 34, rac-[1-(4-Chloro-phenyl)-1H-[1,2,3]triazol-4-yl]-(2-cyclopropyl-imidazo[5,1-b]thiazol-3-yl)-methanol] |
| 406 | > 10200 | Cc1sc2cncn2c1C(O)c1cc(-c2ccccc2)no1 (racemic) [Example 156, rac-(2-Methyl-imidazo[5,1-b]thiazol-3-yl)-(3-phenyl-isoxazol-5-yl)-methanol] |
| 20.2 | > 10200 | CCOc1ccc(-n2cc(C(O)c3c(C4CC4)sc4cncn34)nn2)cn1 (racemic) [Example 42, rac-(2-Cyclopropyl-imidazo[5,1-b]thiazol-3-yl)-[1-(6-ethoxy-pyridin-3-yl)-1H-[1,2,3]triazol-4-yl]-methanol] |
| 17.6 | > 10200 | C=C(C)c1sc2cncn2c1C(O)c1cn(-c2ccc(OCCC(C)(C)O)c(Cl)c2)nn1 (racemic) [Example 293, rac-4-(2-Chloro-4-{4-[hydroxy-(2-isopropenyl-imidazo[5,1-b]thiazol-3-yl)-methyl]-[1,2,3]triazol-1-yl}-phenoxy)-2-methyl-butan-2-ol] |
| 587 | > 10200 | COc1ccccc1-c1ccc(C(O)c2c(C3CC3)sc3cncn23)s1 (racemic) [Example 166, rac-(2-Cyclopropyl-imidazo[5,1-b]thiazol-3-yl)-[5-(2-methoxy-phenyl)-thiophen-2-yl]-methanol] |
| 292 | > 10200 | CN(C)CCOc1ccc(-n2cc(C(O)c3c(C4CC4)sc4cncn34)nn2)cc1 (racemic) [Example 204, rac-(2-Cyclopropyl-imidazo[5,1-b]thiazol-3-yl)-{1-[4-(2-dimethylamino-ethoxy)-phenyl]-1H-[1,2,3]triazol-4-yl}-methanol] |
| 14.2 | > 10200 | CCOc1ncc(-n2cc(C(O)c3c(C4CC4)sc4cncn34)nn2)cn1 (racemic) [Example 65, rac-(2-Cyclopropyl-imidazo[5,1-b]thiazol-3-yl)-[1-(2-ethoxy-pyrimidin-5-yl)-1H-[1,2,3]triazol-4-yl]-methanol] |
| 12.3 | > 10200 | CCc1sc2cncn2c1C(O)c1cn(-c2ccc(OCC3CC3)cc2)nn1 (racemic) [Example 54, rac-[1-(4-Cyclopropylmethoxy-phenyl)-1H-[1,2,3]triazol-4-yl]-(2-ethyl-imidazo[5,1-b]thiazol-3-yl)-methanol] |
